According to patent US9725445B2, “Cycloalkyl nitrile pyrazolo pyridones as Janus kinase inhibitors” (Merck Sharp & Dohme Corp., priority 2013, dated 2017):

Legend:
JAK1 = JAK1 (Homo sapiens (Human), UniProt P23458); assay: Jak biochemical HTRF assay, JAK1; conditions: HTRF biochemical assay, recombinant GST-tagged catalytic domain; read-out: JAK1 IC50
JAK2 = JAK2 (Homo sapiens (Human), UniProt O60674); assay: Jak biochemical HTRF assay, JAK2; conditions: HTRF biochemical assay, recombinant GST-tagged catalytic domain; read-out: JAK2 IC50
Chain of JAK2 (O60674 849-1124): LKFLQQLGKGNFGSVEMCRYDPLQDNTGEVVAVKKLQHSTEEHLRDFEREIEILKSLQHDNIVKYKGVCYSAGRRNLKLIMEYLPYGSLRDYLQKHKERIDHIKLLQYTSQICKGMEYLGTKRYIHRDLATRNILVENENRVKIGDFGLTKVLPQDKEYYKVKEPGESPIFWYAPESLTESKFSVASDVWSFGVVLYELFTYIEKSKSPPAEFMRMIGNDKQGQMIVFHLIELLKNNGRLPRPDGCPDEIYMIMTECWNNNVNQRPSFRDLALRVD

Chain of JAK1 (P23458 875-1153): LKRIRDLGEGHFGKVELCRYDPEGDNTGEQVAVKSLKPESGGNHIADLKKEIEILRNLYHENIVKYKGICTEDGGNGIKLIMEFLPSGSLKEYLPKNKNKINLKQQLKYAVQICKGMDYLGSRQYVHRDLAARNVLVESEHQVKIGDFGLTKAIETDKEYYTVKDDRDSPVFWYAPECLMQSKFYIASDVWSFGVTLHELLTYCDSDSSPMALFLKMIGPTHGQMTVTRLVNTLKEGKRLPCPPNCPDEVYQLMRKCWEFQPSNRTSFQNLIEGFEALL

Row | IC50 (JAK1) [nM] | IC50 (JAK2) [nM] | SMILES
1 | 0.06 | 0.15 | Cc1cc(Nc2nn([C@H]3CCCC[C@@H]3C#N)c3cc[nH]c(=O)c23)ccc1C(C(C)C)n1ccnn1 (single isomer, unassigned) [Example 15-38, (1S,2S)-2-[3-({3-methyl-4-[(1R or 1S)-2-methyl-1-(1H-1,2,3-triazol-1-yl)propyl]phenyl}amino)-4-oxo-4,5-dihydro-1H-pyrazolo[4,3-c]pyridin-1-yl]cyclohexanecarbonitrile]
2 | 0.081 | 0.4 | N#C[C@H]1CCCCC[C@@H]1n1nc(Nc2ccc3c(c2)CN(C2CCOCC2)S3(=O)=O)c2c(=O)[nH]ccc21 (single isomer, unassigned) [Example 15-54, (1S,2S or 1R,2R)-2-(3-{[1,1-dioxido-2-(tetrahydro-2H-pyran-4-yl)-2,3-dihydro-1,2-benzisothiazol-5-yl]amino}-4-oxo-4,5-dihydro-1H-pyrazolo[4,3-c]pyridin-1-yl)cycloheptanecarbonitrile]
3 | 0.55 | 3.6 | N#C[C@H]1CCCC[C@@H]1n1nc(Nc2ccc(-c3ncno3)cc2)c2c(=O)[nH]ccc21 [Example 15-6, (1S,2S)-2-(3-{[4-(1,2,4-oxadiazol-5-yl)phenyl]amino}-4-oxo-4,5-dihydro-1H-pyrazolo[4,3-c]pyridin-1-yl)cyclohexanecarbonitrile]
4 | 1.7 | 5.9 | CCOC(=O)c1cnn(-c2ccc(Nc3nn([C@H]4CCCC[C@@H]4C#N)c4cc[nH]c(=O)c34)cc2C)c1 [Example 15-15, ethyl 1-[4-({1-[(1S,2S)-2-cyanocyclohexyl]-4-oxo-4,5-dihydro-1H-pyrazolo[4,3-c]pyridin-3-yl}amino)-2-methylphenyl]-1H-pyrazole-4-carboxylate]
5 | 0.092 | 1.6 | Cc1nc2ccc(Nc3nn([C@H]4CCCC[C@@H]4C#N)c4cc[nH]c(=O)c34)cc2s1 [Example 15-10, (1S,2S)-2-{3-[(2-methyl-1,3-benzothiazol-6-yl)amino]-4-oxo-4,5-dihydro-1H-pyrazolo[4,3-c]pyridin-1-yl}cyclohexanecarbonitrile]
6 | 0.11 | 0.41 | N#C[C@H]1CCCC[C@@H]1n1nc(Nc2ccc([C@H](N)C(F)(F)F)cc2)c2c(=O)[nH]ccc21 [Example 7-4, (1S,2S)-2-[3-({4-[(1S)-1-amino-2,2,2-trifluoroethyl]phenyl}amino)-4-oxo-4,5-dihydro-1H-pyrazolo[4,3-c]pyridin-1-yl]cyclohexanecarbonitrile]

More lines, now with the values behind:

Row | SMILES | IC50 (JAK1) [nM] | IC50 (JAK2) [nM]
7 | N#C[C@H]1CCCC[C@@H]1n1nc(Nc2cccc(Cn3ccnc3)c2)c2c(=O)[nH]ccc21 [Example 3-47, (1S,2S)-2-(3-{[3-(1H-imidazol-1-ylmethyl)phenyl]amino}-4-oxo-4,5-dihydro-1H-pyrazolo[4,3-c]pyridin-1-yl)cyclohexanecarbonitrile] | 0.78 | 2.2
8 | C[C@H](NCC(F)(F)F)c1ccc(Nc2nn([C@H]3CCCC[C@@H]3C#N)c3cc[nH]c(=O)c23)cc1 [Example 3-73, (1S,2S)-2-{4-oxo-3-[(4-{(1S)-1-[(2,2,2-trifluoroethyl)amino]ethyl}phenyl)amino]-4,5-dihydro-1H-pyrazolo[4,3-c]pyridin-1-yl}cyclohexanecarbonitrile] | 0.26 | 0.45
9 | N#C[C@H]1CCCC[C@@H]1n1nc(Nc2ccc(S(N)(=O)=O)cc2)c2c(=O)[nH]ccc21 [Example 3-7, 4-({1-[(1S,2S)-2-cyanocyclohexyl]-4-oxo-4,5-dihydro-1H-pyrazolo[4,3-c]pyridin-3-yl}amino)benzenesulfonamide] | 0.11 | 0.85
10 | CC1(C)C(=O)c2cc(Nc3nn([C@H]4CCCC[C@@H]4C#N)c4cc[nH]c(=O)c34)ccc2S1(=O)=O [Example 3-171, (1S,2S)-2-{3-[(2,2-dimethyl-1,1-dioxido-3-oxo-2,3-dihydro-1-benzothiophen-5-yl)amino]-4-oxo-4,5-dihydro-1H-pyrazolo[4,3-c]pyridin-1-yl}cyclohexanecarbonitrile] | 1.16 | 5.5
11 | CC(C)(C)OC(=O)C(C)(C)N1Cc2cc(Nc3nn([C@H]4CCCC[C@@H]4C#N)c4cc[nH]c(=O)c34)ccc2S1(=O)=O [Example 3-152, tert-butyl 2-[5-({1-[(1S,2S)-2-cyanocyclohexyl]-4-oxo-4,5-dihydro-1H-pyrazolo[4,3-c]pyridin-3-yl}amino)-1,1-dioxido-1,2-benzisothiazol-2(3H)-yl]-2-methylpropanoate] | 0.1 | 0.77
12 | CC(C)[C@@H](C)N1Cc2ccc(Nc3nn([C@H]4CCCC[C@@H]4C#N)c4cc[nH]c(=O)c34)cc2C1 [Example 3-149, (1S,2S)-2-[3-({2-[(1R)-1,2-dimethylpropyl]-2,3-dihydro-1H-isoindol-5-yl}amino)-4-oxo-4,5-dihydro-1H-pyrazolo[4,3-c]pyridin-1-yl]cyclohexanecarbonitrile] | 0.48 | 0.61
13 | N#C[C@H]1CCCC[C@@H]1n1nc(Nc2ccc([C@H]3C[C@H]4CC[C@@H](C3)N4)cc2)c2c(=O)[nH]ccc21 [Example 20-2] | 0.39 | 0.39
14 | CC(C)(C)OC(=O)CCN1Cc2cc(Nc3nn([C@H]4CCCC[C@@H]4C#N)c4cc[nH]c(=O)c34)ccc2S1(=O)=O [Example 3-150, tert-butyl 3-[5-({1-[(1S,2S)-2-cyanocyclohexyl]-4-oxo-4,5-dihydro-1H-pyrazolo[4,3-c]pyridin-3-yl}amino)-1,1-dioxido-1,2-benzisothiazol-2(3H)-yl]propanoate] | 0.066 | 0.55
15 | N#C[C@H]1CCC[C@@H]1n1nc(Nc2ccc3c(c2)CN(CC(F)(F)F)S3(=O)=O)c2c(=O)[nH]ccc21 [Example 3-101, (1S,2S)-2-(3-{[1,1-dioxido-2-(2,2,2-trifluoroethyl)-2,3-dihydro-1,2-benzisothiazol-5-yl]amino}-4-oxo-4,5-dihydro-1H-pyrazolo[4,3-c]pyridin-1-yl)cyclopentanecarbonitrile] | 0.056 | 0.5
16 | N#C[C@H]1CCCC[C@@H]1n1nc(Nc2ccc3c(c2)CN(CC(F)(F)F)C3=O)c2c(=O)[nH]ccc21 [Example 3-10, (1S,2S)-2-(4-oxo-3-{[1-oxo-2-(2,2,2-trifluoroethyl)-2,3-dihydro-1H-isoindol-5-yl]amino}-4,5-dihydro-1H-pyrazolo[4,3-c]pyridin-1-yl)cyclohexanecarbonitrile] | 0.12 | 0.43
17 | N#C[C@H]1CCCC[C@@H]1n1nc(Nc2ccc(C(=O)N3CCCC3)cc2)c2c(=O)[nH]ccc21 [Example 3-44, (1S,2S)-2-(4-oxo-3-{[4-(pyrrolidin-1-ylcarbonyl)phenyl]amino}-4,5-dihydro-1H-pyrazolo[4,3-c]pyridin-1-yl)cyclohexanecarbonitrile] | 1.4 | 4.8
18 | N#C[C@H]1CCCC[C@@H]1n1nc(Nc2ccc(S(=O)(=O)NCC3CC3)cc2)c2c(=O)[nH]ccc21 [Example 3-20, 4-({1-[(1S,2S)-2-cyanocyclohexyl]-4-oxo-4,5-dihydro-1H-pyrazolo[4,3-c]pyridin-3-yl}amino)-N-(cyclopropylmethyl)benzene-sulfonamide] | 0.13 | 0.6
19 | Cn1ccc(NC(=O)Cc2cccc(Nc3nn([C@H]4CCCC[C@@H]4C#N)c4cc[nH]c(=O)c34)c2)n1 [Example 3-11, 2-[3-({1-[(1S,2S)-2-cyanocyclohexyl]-4-oxo-4,5-dihydro-1H-pyrazolo[4,3-c]pyridin-3-yl}amino)phenyl]-N-(1-methyl-1H-pyrazol-3-yl)acetamide] | 0.41 | 3.3
20 | CN(C)[C@@H]1CC[C@H](n2nc(Nc3ccc(Cl)cc3)c3c(=O)[nH]ccc32)[C@@H](C#N)C1 [Example 5-15, (1S,2S,5R)-2-(3-((4-chlorophenyl)amino)-4-oxo-4,5-dihydro-1H-pyrazolo[4,3-c]pyridin-1-yl)-5-(dimethylamino)cyclohexanecarbonitrile] | 0.28 | 11
21 | CC(C)(C)OC(=O)CN1Cc2ccc(Nc3nn([C@H]4CCCC[C@@H]4C#N)c4cc[nH]c(=O)c34)cc2C1 [Example 3-164, tert-butyl [5-({1-[(1S,2S)-2-cyanocyclohexyl]-4-oxo-4,5-dihydro-1H-pyrazolo[4,3-c]pyridin-3-yl}amino)-1,3-dihydro-2H-isoindol-2-yl]acetate] | 0.33 | 2.5
22 | COCCN1Cc2cc(Nc3nn([C@H]4CCCC[C@@H]4C#N)c4cc[nH]c(=O)c34)ccc2S1(=O)=O [Example 3-83, (1S,2S)-2-(3-{[2-(2-methoxyethyl)-1,1-dioxido-2,3-dihydro-1,2-benzisothiazol-5-yl]amino}-4-oxo-4,5-dihydro-1H-pyrazolo[4,3-c]pyridin-1-yl)cyclohexanecarbonitrile] | 0.066 | 0.55
23 | Cc1cn(Cc2cccc(Nc3nn([C@H]4CCCC[C@@H]4C#N)c4cc[nH]c(=O)c34)c2)nn1 [Example 3-37, (1S,2S)-2-[3-({3-[(4-methyl-1H-1,2,3-triazol-1-yl)methyl]phenyl}amino)-4-oxo-4,5-dihydro-1H-pyrazolo[4,3-c]pyridin-1-yl]cyclohexanecarbonitrile] | 0.18 | 2.1
24 | CC(C)(C)N1Cc2cc(Nc3nn([C@H]4CCCC[C@@H]4C#N)c4cc[nH]c(=O)c34)ccc2S1(=O)=O [Example 3-53, (1S,2S)-2-{3-[(2-tert-butyl-1,1-dioxido-2,3-dihydro-1,2-benzisothiazol-5-yl)amino]-4-oxo-4,5-dihydro-1H-pyrazolo[4,3-c]pyridin-1-yl}cyclohexanecarbonitrile] | 0.039 | 0.19
25 | N#C[C@H]1CCCC[C@@H]1n1nc(Nc2ccc(S(=O)(=O)NCc3ccccc3)cc2)c2c(=O)[nH]ccc21 [Example 3-19, N-benzyl-4-({1-[(1S,2S)-2-cyanocyclohexyl]-4-oxo-4,5-dihydro-1H-pyrazolo[4,3-c]pyridin-3-yl}amino)benzenesulfonamide] | 0.21 | 1.2
